US9416115B2, “Fused heterocyclic compounds as ion channel modulators” (Gilead Sciences, Inc., priority 2013, dated 2016)

What follows are compounds tested against hNav1.7 (Homo sapiens, UniProt Q15858) (assay: Voltage-dependent inhibition of the Nav1.7 sodium channel). Conditions: voltage-dependent block of peak current.
Chain of hNav1.7 (Q15858 whole entry): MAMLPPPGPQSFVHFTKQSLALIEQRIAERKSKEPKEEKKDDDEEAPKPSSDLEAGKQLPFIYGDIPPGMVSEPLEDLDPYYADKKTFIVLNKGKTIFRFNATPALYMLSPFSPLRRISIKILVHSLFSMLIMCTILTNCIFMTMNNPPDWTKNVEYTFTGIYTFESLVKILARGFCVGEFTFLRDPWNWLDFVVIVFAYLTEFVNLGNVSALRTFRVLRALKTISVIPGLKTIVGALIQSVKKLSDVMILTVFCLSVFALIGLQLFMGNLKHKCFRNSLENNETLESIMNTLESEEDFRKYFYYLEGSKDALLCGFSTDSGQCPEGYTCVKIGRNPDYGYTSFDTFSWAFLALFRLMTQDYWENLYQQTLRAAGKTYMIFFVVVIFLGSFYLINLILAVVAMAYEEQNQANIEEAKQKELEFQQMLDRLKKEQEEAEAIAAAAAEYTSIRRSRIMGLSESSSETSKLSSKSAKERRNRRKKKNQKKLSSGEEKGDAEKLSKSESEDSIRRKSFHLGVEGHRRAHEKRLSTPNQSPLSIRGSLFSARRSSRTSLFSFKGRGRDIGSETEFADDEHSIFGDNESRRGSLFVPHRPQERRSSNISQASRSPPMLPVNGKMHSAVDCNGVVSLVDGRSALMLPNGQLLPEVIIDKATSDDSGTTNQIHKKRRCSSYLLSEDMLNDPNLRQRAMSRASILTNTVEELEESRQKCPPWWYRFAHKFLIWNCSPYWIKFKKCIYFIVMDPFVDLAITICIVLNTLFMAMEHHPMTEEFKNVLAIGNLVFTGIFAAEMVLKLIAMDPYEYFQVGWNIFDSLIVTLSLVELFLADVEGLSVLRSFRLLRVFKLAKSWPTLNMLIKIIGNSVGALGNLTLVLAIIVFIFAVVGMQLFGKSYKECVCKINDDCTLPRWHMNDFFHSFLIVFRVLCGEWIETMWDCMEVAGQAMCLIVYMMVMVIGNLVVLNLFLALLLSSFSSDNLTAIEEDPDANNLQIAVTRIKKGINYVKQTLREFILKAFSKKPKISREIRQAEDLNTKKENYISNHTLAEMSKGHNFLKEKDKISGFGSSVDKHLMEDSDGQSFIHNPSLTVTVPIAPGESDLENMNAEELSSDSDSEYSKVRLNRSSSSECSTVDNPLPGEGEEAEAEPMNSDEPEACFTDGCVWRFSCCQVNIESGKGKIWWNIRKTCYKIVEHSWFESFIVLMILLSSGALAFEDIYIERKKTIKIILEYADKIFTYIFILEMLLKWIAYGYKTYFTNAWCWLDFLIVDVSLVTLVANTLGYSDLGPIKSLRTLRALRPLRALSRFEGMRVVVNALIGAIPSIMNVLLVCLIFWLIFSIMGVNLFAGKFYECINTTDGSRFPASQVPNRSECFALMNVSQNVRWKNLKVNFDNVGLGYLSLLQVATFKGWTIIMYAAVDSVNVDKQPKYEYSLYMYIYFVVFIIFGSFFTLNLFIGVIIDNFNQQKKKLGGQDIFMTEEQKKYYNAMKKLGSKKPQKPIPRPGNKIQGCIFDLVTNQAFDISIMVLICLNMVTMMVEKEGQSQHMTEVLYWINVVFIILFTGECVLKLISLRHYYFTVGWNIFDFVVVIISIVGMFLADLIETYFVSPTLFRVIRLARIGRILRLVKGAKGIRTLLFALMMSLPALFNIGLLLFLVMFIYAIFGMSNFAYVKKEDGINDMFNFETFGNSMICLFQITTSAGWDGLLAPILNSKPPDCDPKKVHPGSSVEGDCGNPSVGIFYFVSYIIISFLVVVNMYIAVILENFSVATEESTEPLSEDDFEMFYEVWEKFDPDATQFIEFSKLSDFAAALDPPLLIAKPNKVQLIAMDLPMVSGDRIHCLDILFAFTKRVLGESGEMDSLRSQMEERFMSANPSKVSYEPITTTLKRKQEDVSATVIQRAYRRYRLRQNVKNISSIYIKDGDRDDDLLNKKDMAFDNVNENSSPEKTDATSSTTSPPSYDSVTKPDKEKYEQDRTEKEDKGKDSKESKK
Format: cell-based
Procedure: HEK-293 cells stably expressing wild-type (WT) hNav1.7 were obtained from Scottish Biomedical (Glasgow, Scotland, United Kingdom). Cells are maintained with standard tissue culture procedures and stable channel expression is maintained with 500 ug/mL G418 in the culture medium. Unless otherwise noted, all reagents are purchased from Sigma-Aldrich (St Louis, Mo., U.S.A.).
Assays measuring Voltage-Dependent Block (VDB) of Nav1.7 are performed on an automated electrophysiology platform, QPatch 16X or QPatch HT (Sophion Bioscience, Copenhagen, Denmark), using the whole cell patch clamp technique to measure currents through the cell membrane. Series resistance compensation is set to 100% and series resistance and whole-cell compensation are performed automatically. Currents stored in the Sophion Bioscience Oracle database (Sophion Bioscience, Copenhagen, Denmark). Analysis is performed using QPatch Assay software and data are compiled in Excel 2010 (Microsoft, Seattle, Wash., U.S.A.).
The internal (pipette) solution consists of (in mM) 105 CsF, 10 NaF, 20 CsCl, 2 EGTA, 10 HEPES, 10 Dextrose with a pH of 7.35 and osmolarity of 300 mOsmol/kg. The external (bath) solution contains in (mM): 140 NaCl, 4 KCl, 1.8 CaCl2, 1 MgCl2, 10 dextrose, 10 HEPES, with a pH of 7.35 and osmolarity of 310 mOsmol/kg. Experiments are carried out at 23-25° C.
Compound stocks are routinely made by the Gilead Sample Bank in vials to 10 mM in dimethyl sulfoxide (DMSO). In some cases, when compounds are not soluble in DMSO, they are made in 100% ethanol. Stocks are sonicated as necessary. Compounds are diluted in extracellular solution using a MicroLab Nimbus (Hamilton Robotics, Reno, Nev.) to 1 μM in glass vials and transferred to glass well plates before robotic addition to the cells.
Cells are allowed to stabilize for 10 min after establishment of the whole-cell configuration before current is measured. The test compound is applied 3 times at 120 second intervals to allow for equilibration. Currents were leak subtracted using a P/4 procedure, low-pass Bessel filtered at 5 kHz and digitized at 25 kHz. Results are presented as mean percentage inhibition.
Voltage-dependent block of Nav1.7 peak current was measured during a voltage step to 0 mV (20 ms) following a voltage step pre-conditioning steps (−60 mV for 10 sec followed by −120 mV for 10 ms). The holding potential was −120 mV and this voltage protocol induces half maximal inactivation of Nav1.7. The voltage protocol for VDB was performed every 45 seconds in the absence and presence of compound and percentage inhibition was calculated with respect to the compound free condition.
In the case of `Cc1nnc(COc2noc3ccc(-c4ccc(OC(F)(F)F)cc4)cc23)o1` [Example 99, 3-((5-methyl-1,3,4-oxadiazol-2-yl)methoxy)-5-(4-(trifluoromethoxy)phenyl)benzo[d]isoxazole], the “Nav 1.7-VDB 1 uM” value is reported as 59.3 percentage inhibition. In the case of `FC(F)(F)Oc1cccc(-c2ccc3onc(OCc4ncccn4)c3c2)c1` [Example 10, 3-(pyrimidin-2-ylmethoxy)-5-(3-(trifluoromethoxy)phenyl)benzo[d]isoxazole], the “Nav 1.7-VDB 1 uM” value is reported as 10.0 percentage inhibition. In the case of `Fc1cc(C(F)(F)F)ccc1-c1ccc2onc(OCc3ncccn3)c2c1` [Example 6, 5-(2-fluoro-4-(trifluoromethyl)phenyl)-3-(pyrimidin-2-ylmethoxy)benzo[d]isoxazole], the “Nav 1.7-VDB 1 uM” value is reported as 15.6 percentage inhibition. With `COc1cc(OC(F)(F)F)ccc1-c1ccc2onc(OCc3ncccn3)c2c1` [Example 4, 5-(2-methoxy-4-(trifluoromethoxy)phenyl)-3-(pyrimidin-2-ylmethoxy)benzo[d]isoxazole] the “Nav 1.7-VDB 1 uM” value was 28.6 percentage inhibition.
